# Legend:
# [1] = system: CBA/CaJ thymocytes (irradiated BDF1 splenocyte stimulators); experiment: T cell proliferation in mixed leukocyte cultures, CBA/CaJ thymocytes; format: cell-based, mouse; conditions: Study 3, responder +, stimulator +
# Description: A third and fourth study utilized thymocytes from CBA/CaJ mice as the stimulated (responder) cells, and irradiated BDFl mouse spleen cells as the stimulator cells. Two guanosine derivatives of the present invention, 7a8MGuo and 7a8oGuo, were used for these studies, with 8MGuo serving as positive control for one of the studies.
# However, in the presence of interleukin-2 (IL-2), those cells develop responsiveness to allogeneic stimulation. The present studies utilizing thymocytes were therefore carried out in the presence of a co-stimulating amount of IL-2.
# (§1) ^1 Plus signs (+) are utilized to indicate the presence of the
# (§2) ^3 Allogeneic cells used to costimulate proliferation, after exposure
# (§3) T Helper Cell Activation. 1.5×10^5 viable spleen cells from SJL mice or CBA/CaJ mouse thymocytes were cultured with or without an equal number of irradiated (2500 rads) spleen cells from CBA/CaJ or BDFl mice respectively, in 0.2 ml of culture medium in the presence of incremental concentrations of the exemplary 7,8-disubstituted guanine derivatives. The lymphocyte culture medium utilized was that described before, and was further supplemented with 2-mercaptoethanol to a final concentration of 50 uM. Thymocyte cultures also contained 10 percent (v/v) of a concanavalin A-conditioned rat spleen cell medium sold under the name Rat T Cell Monoclone by Collaborative Research. Following 90 hours of culture, one microCurie [^3 H]TdR per culture was admixed, and the resulting culture was maintained for a further six hour time period.
# (§4) The cultures were harvested with a Brandel cell harvester (M24V, Biological Research and Development Laboratories, Rockville, Md.) onto glass fiber filter disks. Filter disks were transferred to plastic scintillation vials, covered with liquid scintillation cocktail, and counted in a Beckman LS5700 liquid scintillation counter.
# [2] = system: murine lymphocytes (sheep red blood cells as antigen); experiment: Antigen-specific adjuvanticity: direct anti-SRBC plaque forming cells, murine system; format: cell-based, mouse; conditions: for Direct anti-SRBC PFC/Culture at supraoptimal concentration: 3 × 10^-4 M
# In short: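 Murine spleen cells (5×10^6 to 10^7) cultured 4 or 5 days in 1.0 ml 5% FCS RPMI 1640, 37 °C, 10% CO2, with or without SRBC immunogen. Anti-SRBC direct plaque-forming cells counted per culture by modified Jerne–Nordin hemolytic plaque assay with guinea pig complement; mean ± standard error at peak concentration.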
# [3] = system: SJL splenocytes (irradiated CBA/CaJ splenocyte stimulators); experiment: T cell proliferation in mixed leukocyte cultures, SJL splenocytes; format: cell-based, mouse; conditions: responder +
# Description: In evaluating the effect of a guanosine derivative on alloantigen-induced proliferation, it is imperative to minimize the simultaneous mitogenic response of B cells to contact with a guanosine derivative. Spleen cells from SJL mice (whose B cells are hyporesponsive to the mitogenic effect of a guanosine derivative, but not to its adjuvant activity) were used as responder cells in two studies. Those responder cells were stimulated with irradiated allogenic cells (from CBA/CaJ mice) in the presence of no added nucleoside, incremental amounts of a guanosine derivative of the invention, 7M8oGuo, or with another guanosine derivative, 8MGuo, used as a positive control.
# as §1
# material of the column heading in the culture medium, whereas minus signs
# (-) are utilized to show absence of such a material from the culture
# as §2, §3, §4
# physchem = format: physicochemical, human
# Description: Solubilities in urine could be expected to be lower than those for water due to the relatively higher salt content in urine than is found in water.
# Each sample was filtered through a 5 micron pore-sized filter, diluted as necessary with the HPLC mobile phase, and then quantified by HPLC.
structure (smiles),measurement,setting,value
"C=CCn1c(=S)n([C@@H]2O[C@H](CO)[C@@H](O)[C@H]2O)c2nc(N)[nH]c(=O)c21 [7a8MGuo, 7-(2-Propenyl)-8-thioxoguanosine]",[3H] TdR Uptake,[1]; 10^-4 M,"21,400 ± 1200 counts per minute"
same,[3H] TdR Uptake,[1]; 10^-5 M,"15,300 ± 600 counts per minute"
same,[3H] TdR Uptake,[1]; 10^-6 M,"11,800 ± 400 counts per minute"
same,Direct anti-SRBC PFC/Culture at supraoptimal concentration,"[2]; Table 5, supraoptimal concentration (*)",925 ± 80 PFC/Culture
same,Peak Direct anti-SRBC PFC/Culture,"[2]; Table 5, murine system, at peak concentration",1850 ± 70 PFC/Culture
same,Peak Direct anti-SRBC PFC/Culture,"[2]; Table 6, murine system, at peak concentration",1867 ± 150 PFC/Culture
same,Peak Direct anti-SRBC PFC/Culture,"[2]; Table 6, study a",1850 ± 50 PFC/Culture
same,Direct anti-SRBC PFC/Culture at supraoptimal concentration,"[2]; Table 6, study b, supraoptimal amount (*)",925 ± 80 PFC/Culture
same,Peak Direct anti-SRBC PFC/Culture,"[2]; Table 6, study c",1975 ± 109 PFC/Culture
same,Direct Anti-SRBC PFC/Culture,"[2]; Table 8, 1 × 10^-5 M",1049 PFC/Culture
same,Average 1 Log Plaque Values,"[2]; Table 9, murine, * = single study","326,840 ± 170,907 per micromole"
same,"adjuvanticity higher / more active than comparison compound of U.S. Pat. No. 4,643,992","[2]; murine system (Table 5), vs 7m8oGuo or compounds of that patent",more than 100%
same,[3H] TdR Uptake,"[3]; Study 1, stimulator +, 10^-5 M","67,500 ± 2900 counts per minute"
same,[3H] TdR Uptake,"[3]; Study 1, stimulator -, 10^-5 M","36,700 ± 2400 counts per minute"
same,[3H] TdR Uptake,"[3]; Study 2, stimulator +, 10^-5 M","36,400 ± 3800 counts per minute"
same,[3H] TdR Uptake,"[3]; Study 2, stimulator -","19,100 ± 1100 counts per minute"
same,"solubility in human urine, in words",physchem,relatively insoluble
same,solubility at 18 h,"physchem; human, urine",300 µg/mL
